Laboratory results: PubChem BioAssay AID1963428 (Molecular Pharmacology Branch, DTP, NCI, 2024)

Tested on: 171881-019-R-J1-PDC complex spheroid growth, % test/control
Test: Anticancer human tumor 171881-019-R-J1-PDC patient-derived invasive breast carcinoma cell line growth inhibition [Asc]
Details: for IC50: curve of first compound; for viability, T/C: stronger effect = lower value
Outline: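 Concentration series start at each agent's clinical Cmax, or at 10 microM when none is established, and drop in half-log steps; agents are applied alone or together to complex spheroids built with HUVEC and hMSC.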

[1] = second compound 0.1 µM, first compound 0.00316 µM
[2] = second compound 0.1 µM, first compound 0.01 µM
[3] = second compound 0.1 µM, first compound 0.0316 µM
[4] = second compound 0.1 µM, first compound 0.1 µM
[5] = second compound 0.316 µM, first compound 0.00316 µM
[6] = second compound 0.316 µM, first compound 0.01 µM
[7] = second compound 0.316 µM, first compound 0.0316 µM
[8] = second compound 0.316 µM, first compound 0.1 µM
[9] = second compound 1 µM, first compound 0.00316 µM
[10] = second compound 1 µM, first compound 0.01 µM
[11] = second compound 1 µM, first compound 0.0316 µM
[12] = second compound 1 µM, first compound 0.1 µM
[13] = second compound 3.16 µM, first compound 0.00316 µM
[14] = second compound 3.16 µM, first compound 0.01 µM
[15] = second compound 3.16 µM, first compound 0.0316 µM
[16] = second compound 3.16 µM, first compound 0.1 µM
[17] = second compound 10 µM, first compound 0.00316 µM
[18] = second compound 10 µM, first compound 0.01 µM
[19] = second compound 10 µM, first compound 0.0316 µM
[20] = second compound 10 µM, first compound 0.1 µM
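Throughout, for viability, T/C: spheroids exposed to compounds for 7 days.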

| IC50 (second compound 0.1 µM) | IC50 (second compound 0.316 µM) | IC50 (second compound 1 µM) | IC50 (second compound 3.16 µM) | IC50 (second compound 10 µM) | Structure (SMILES) | viability, T/C [1] | viability, T/C [2] | viability, T/C [3] | viability, T/C [4] | viability, T/C [5] | viability, T/C [6] | viability, T/C [7] | viability, T/C [8] | viability, T/C [9] | viability, T/C [10] | viability, T/C [11] | viability, T/C [12] | viability, T/C [13] | viability, T/C [14] | viability, T/C [15] | also measured |
| --- | --- | --- | --- | --- | --- | --- | --- | --- | --- | --- | --- | --- | --- | --- | --- | --- | --- | --- | --- | --- | --- |
| > 1000 nM | > 1000 nM | > 1000 nM | > 1000 nM | > 1000 nM | CCN1CCN(Cc2ccc(Nc3ncc(F)c(-c4cc(F)c5nc(C)n(C(C)C)c5c4)n3)nc2)CC1 + Cc1c(S(C)(=O)=O)c(-c2cc(F)cc(N3CCN(c4ccc(NS(=O)(=O)c5ccc(NC(CCN6CCC(C(=O)OCCCP(=O)(O)O)CC6)CSc6ccccc6)c(S(=O)(=O)C(F)(F)F)c5)cc4)CC3)c2)c(-c2ccc(Cl)cc2)n1C(C)C | 105% | 118% | 119% | 111% | 142% | 145% | 149% | 139% | 125% | 149% | 157% | 172% | 191% | 190% | 189% | viability, T/C (second compound 0.1 µM, first compound 0.316 µM): 118%; viability, T/C (second compound 0.1 µM, first compound 1 µM): 146%; viability, T/C (second compound 0.316 µM, first compound 0.316 µM): 178%; viability, T/C (second compound 0.316 µM, first compound 1 µM): 188%; viability, T/C (second compound 1 µM, first compound 0.316 µM): 188%; viability, T/C (second compound 1 µM, first compound 1 µM): 200%; viability, T/C [16]: 184%; viability, T/C (second compound 3.16 µM, first compound 0.316 µM): 188%; viability, T/C (second compound 3.16 µM, first compound 1 µM): 185%; viability, T/C [17]: 199%; viability, T/C [18]: 215%; viability, T/C [19]: 213%; viability, T/C [20]: 192%; viability, T/C (second compound 10 µM, first compound 0.316 µM): 187%; viability, T/C (second compound 10 µM, first compound 1 µM): 166% |
| > 100 nM | > 100 nM | > 100 nM | > 100 nM | > 100 nM | Cn1ncnc1[C@H]1c2n[nH]c(=O)c3cc(F)cc(c23)N[C@@H]1c1ccc(F)cc1 + Cc1c(S(C)(=O)=O)c(-c2cc(F)cc(N3CCN(c4ccc(NS(=O)(=O)c5ccc(NC(CCN6CCC(C(=O)OCCCP(=O)(O)O)CC6)CSc6ccccc6)c(S(=O)(=O)C(F)(F)F)c5)cc4)CC3)c2)c(-c2ccc(Cl)cc2)n1C(C)C | 103% | 115% | 108% | 100% | 107% | 120% | 129% | 129% | 123% | 159% | 143% | 192% | 186% | 178% | 192% | viability, T/C (second compound 0.1 µM, first compound 0.000316 µM): 86.8%; viability, T/C (second compound 0.1 µM, first compound 0.001 µM): 108%; viability, T/C (second compound 0.316 µM, first compound 0.000316 µM): 111%; viability, T/C (second compound 0.316 µM, first compound 0.001 µM): 130%; viability, T/C (second compound 1 µM, first compound 0.000316 µM): 136%; viability, T/C (second compound 1 µM, first compound 0.001 µM): 145%; viability, T/C (second compound 3.16 µM, first compound 0.000316 µM): 168%; viability, T/C (second compound 3.16 µM, first compound 0.001 µM): 155%; viability, T/C [16]: 173%; viability, T/C (second compound 10 µM, first compound 0.000316 µM): 210%; viability, T/C (second compound 10 µM, first compound 0.001 µM): 203%; viability, T/C [17]: 214%; viability, T/C [18]: 208%; viability, T/C [19]: 192%; viability, T/C [20]: 181% |
